Results published in US4820694A, “Modifications of 3-O-demethylmycinose in macrocin and lactenocin” (priority 1986, dated 1989).
Values after ≈ are worked out from the molar mass of the structure shown. Read-outs that look alike come from different tables or passages of the source.

Experiments:
[1] = system: Pasteurella hemolytica 22C; assay: broth-dilution microtiter MIC test; format: cell-based; details: Pasteurella, 22C
Description: (§1) The MIC's in Table III were determined by standard agar-dilution assays. The MIC's in Table IV were obtained using conventional brothdilution microtiter tests.

[2] = system: Pasteurella hemolytica 41D; assay: broth-dilution microtiter MIC test; format: cell-based; details: Pasteurella, 41D
Description: as §1

[3] = system: Mycoplasma hyorhinis 29E; assay: broth-dilution microtiter MIC test; format: cell-based; details: Mycoplasma, 29E
Description: as §1

[4] = system: Pasteurella multocida 17E; assay: broth-dilution microtiter MIC test; format: cell-based; details: Pasteurella multocida, 17E
Description: as §1

[5] = system: Pasteurella hemolytica 23C; assay: broth-dilution microtiter MIC test; format: cell-based; details: Pasteurella, 23C
Description: as §1

[6] = system: Bordetella bronchiseptica; assay: broth-dilution microtiter MIC test; format: cell-based; details: Bordetella bronchiseptica
Description: as §1

[7] = system: Mycoplasma synoviae 40A; assay: broth-dilution microtiter MIC test; format: cell-based; details: Mycoplasmopsis synoviae, 40A
Description: as §1

[8] = system: Mycoplasma gallisepticum 36H; assay: broth-dilution microtiter MIC test; format: cell-based; details: Mycoplasmoides gallisepticum, 36H
Description: as §1

[9] = system: Pasteurella multocida 22A; assay: broth-dilution microtiter MIC test; format: cell-based; details: Pasteurella multocida, 22A
Description: as §1

[10] = system: Staphylococcus aureus 19C; assay: broth-dilution microtiter MIC test; format: cell-based; details: Staphylococcus aureus, 19C
Description: as §1

[11] = system: Mycoplasma gallisepticum 29C; assay: broth-dilution microtiter MIC test; format: cell-based; details: Mycoplasmoides gallisepticum, 29C
Description: as §1

[12] = system: Pasteurella multocida 60A; assay: broth-dilution microtiter MIC test; format: cell-based; details: Pasteurella multocida, 60A
Description: as §1

[13] = system: Pasteurella multocida 40G; assay: broth-dilution microtiter MIC test; format: cell-based; details: Pasteurella multocida, 40G
Description: as §1

[14] = system: Streptococcus sp. 19F; assay: broth-dilution microtiter MIC test; format: cell-based; details: Streptococcus, SP.19F
Description: as §1

[15] = system: Pasteurella multocida 68C; assay: broth-dilution microtiter MIC test; format: cell-based; details: Pasteurella multocida, 68C
Description: as §1

[16] = system: Mycoplasma gallisepticum 15E; assay: broth-dilution microtiter MIC test; format: cell-based; details: Mycoplasmoides gallisepticum, 15E
Description: as §1

[17] = system: Streptococcus Group D 9960; assay: standard agar-dilution MIC assay; format: cell-based; details: GROUPD9960, read-out: MIC
Description: as §1

[18] = system: Haemophilus influenzae C.L.; assay: standard agar-dilution MIC assay; format: cell-based; details: Haemophilus influenzae
Description: as §1

[19] = system: Staphylococcus aureus V41; assay: standard agar-dilution MIC assay; format: cell-based; details: Staphylococcus aureus, V41
Description: as §1

[20] = system: Streptococcus pyogenes C203; assay: standard agar-dilution MIC assay; format: cell-based; details: Streptococcus pyogenes, C203
Description: as §1

[21] = system: Streptococcus Group D X66; assay: standard agar-dilution MIC assay; format: cell-based; details: read-out: MIC
Description: as §1

[22] = system: Staphylococcus aureus X400; assay: standard agar-dilution MIC assay; format: cell-based; details: Staphylococcus aureus, X400
Description: as §1

[23] = system: Staphylococcus aureus X1.1; assay: standard agar-dilution MIC assay; format: cell-based; details: Staphylococcus aureus, X1.1
Description: as §1

[24] = system: Pseudomonas aeruginosa X239; assay: standard agar-dilution MIC assay; format: cell-based; details: Pseudomonas aeruginosa, X239
Description: as §1

[25] = system: Klebsiella pneumoniae X68; assay: standard agar-dilution MIC assay; format: cell-based; details: Klebsiella pneumoniae, X68
Description: as §1

[26] = system: Staphylococcus epidermidis EPI1; assay: standard agar-dilution MIC assay; format: cell-based; details: Staphylococcus epidermidis, EPI1
Description: as §1

[27] = system: Haemophilus influenzae 76; assay: standard agar-dilution MIC assay; format: cell-based; details: Haemophilus influenzae, 76
Description: as §1

[28] = system: Escherichia coli EC14; assay: standard agar-dilution MIC assay; format: cell-based
Description: as §1

[29] = system: Streptococcus pneumoniae Park I; assay: microbe, parasite or virus in culture; format: cell-based; details: Streptococcus pneumoniae
Description: as §1

[30] = system: Staphylococcus aureus S13E; assay: microbe, parasite or virus in culture; format: cell-based; details: Staphylococcus aureus, S13E
Description: as §1

[31] = system: Streptococcus pyogenes C203; assay: protection of mice experimentally infected with S. pyogenes C203; format: in vivo
Description: The formula 1 compounds have shown in vivo antimicrobial activity against experimentally-induced infections in laboratory animals. When two doses of test compound were administered to mice experimentally infected with S. pyrogenes C203, the activity observed was measured as an ED50 value [effective dose in mg/kg to protect 50% of the test animals: see Warren Wick, et al., J. Bacteriol. 81, 233-235 (1961)].
^a mg/kg × 2; doses given 1 and 4 hours postinfection

[32] = broth-dilution microtiter, read-out: MIC

Row | SMILES | MIC [1] | MIC [2] | MIC [3] | MIC [4] | MIC [5] | MIC [7] | MIC [8] | MIC [9] | MIC [10] | MIC [11] | MIC [12] | MIC [13] | MIC [14] | MIC [15] | MIC [16] | MIC [17] | MIC [18] | MIC [19] | MIC [20] | MIC [21] | other results
1 | CCC1OC(=O)CC(O)C(C)C(OC2OC(C)C(O)C(N(C)C)C2O)C(CC=O)CC(C)C(=O)C=CC(C)=CC1COC1OC(C)C(OC(C)=O)C(OC(=O)COc2ccccc2)C1OC (stereo not shown) [Compound 38, 4"-O-Acetyl-3"-O-phenoxyacetyl-lactenocin] | 25 µg/mL (≈ 26.8 µM) | 50 µg/mL (≈ 53.5 µM) | 12.5 µg/mL (≈ 13.4 µM) | 25 µg/mL (≈ 26.8 µM) | 25 µg/mL (≈ 26.8 µM) | 0.78 µg/mL (≈ 0.835 µM) | 12.5 µg/mL (≈ 13.4 µM) | 25 µg/mL (≈ 26.8 µM) | 3.12 µg/mL (≈ 3.34 µM) | 0.39 µg/mL (≈ 0.418 µM) | 12.5 µg/mL (≈ 13.4 µM) | 25 µg/mL (≈ 26.8 µM) | 0.78 µg/mL (≈ 0.835 µM) | 12.5 µg/mL (≈ 13.4 µM) | 25 µg/mL (≈ 26.8 µM) | 2 µg/mL (≈ 2.14 µM) | 16 µg/mL (≈ 17.1 µM) | 1 µg/mL (≈ 1.07 µM) | 0.5 µg/mL (≈ 0.535 µM) | 2 µg/mL (≈ 2.14 µM) | MIC [6, 32]: > 50 µg/mL; MIC [22]: 2 µg/mL (≈ 2.14 µM); MIC [23]: 1 µg/mL (≈ 1.07 µM); MIC ([24]; agar-dilution, read-out: MIC): > 128 µg/mL; MIC ([25]; agar-dilution, read-out: MIC): > 128 µg/mL; MIC [26]: 1 µg/mL (≈ 1.07 µM); MIC [27]: 8 µg/mL (≈ 8.56 µM); MIC ([28]; agar-dilution, read-out: MIC): > 128 µg/mL; MIC [29]: 0.25 µg/mL (≈ 0.268 µM); MIC [30]: 1 µg/mL (≈ 1.07 µM)
2 | CCC1OC(=O)CC(O)C(C)C(OC2OC(C)C(O)C(N(C)C)C2O)C(CC=O)CC(C)C(=O)C=CC(C)=CC1COC1OC(C)C(OC(=O)CC(C)C)C(O)C1OC (stereo not shown) [Compound 26, 4"-O-Isovaleryl-lactenocin] | 50 µg/mL (≈ 59.4 µM) | 50 µg/mL (≈ 59.4 µM) | 1.56 µg/mL (≈ 1.85 µM) | 25 µg/mL (≈ 29.7 µM) | 25 µg/mL (≈ 29.7 µM) | 3.12 µg/mL (≈ 3.71 µM) | 50 µg/mL (≈ 59.4 µM) | 25 µg/mL (≈ 29.7 µM) | 3.12 µg/mL (≈ 3.71 µM) | 1.56 µg/mL (≈ 1.85 µM) | 25 µg/mL (≈ 29.7 µM) | 25 µg/mL (≈ 29.7 µM) | 1.56 µg/mL (≈ 1.85 µM) | 12.5 µg/mL (≈ 14.8 µM) | 50 µg/mL (≈ 59.4 µM) | 1 µg/mL (≈ 1.19 µM) | 8 µg/mL (≈ 9.5 µM) | 1 µg/mL (≈ 1.19 µM) | 0.5 µg/mL (≈ 0.594 µM) | 1 µg/mL (≈ 1.19 µM) | MIC [6, 32]: > 50 µg/mL; ED50 ([31]; C203, Oral, mice, mg/kg × 2, doses given 1 and 4 hours postinfection, read-out: ED50): > 25 mg/kg; ED50 ([31]; C203, sc, Subcutaneous, mice, mg/kg × 2, doses given 1 and 4 hours postinfection, read-out: ED50): 5.37 mg/kg; MIC [22]: 2 µg/mL (≈ 2.38 µM); MIC [23]: 1 µg/mL (≈ 1.19 µM); MIC ([24]; agar-dilution, read-out: MIC): > 128 µg/mL; MIC ([25]; agar-dilution, read-out: MIC): > 128 µg/mL; MIC [26]: 1 µg/mL (≈ 1.19 µM); MIC [27]: 8 µg/mL (≈ 9.5 µM); MIC ([28]; agar-dilution, read-out: MIC): > 128 µg/mL; MIC [29]: 0.25 µg/mL (≈ 0.297 µM); MIC [30]: 1 µg/mL (≈ 1.19 µM)
3 | CCC1OC(=O)CC(O)C(C)C(OC2OC(C)C(OC3CC(C)(O)C(O)C(C)O3)C(N(C)C)C2O)C(CC=O)CC(C)C(=O)C=CC(C)=CC1COC1OC(C)C(OC(=O)Cc2ccccc2)C(O)C1OC (stereo not shown) [Compound 10, 4'"-O-Phenylacetyl-macrocin] | > 50 µg/mL | > 50 µg/mL | 3.12 µg/mL (≈ 3.06 µM) | 50 µg/mL (≈ 49 µM) | > 50 µg/mL | 1.56 µg/mL (≈ 1.53 µM) | 12.5 µg/mL (≈ 12.3 µM) | > 50 µg/mL | 1.56 µg/mL (≈ 1.53 µM) | 0.39 µg/mL (≈ 0.382 µM) | > 50 µg/mL | > 50 µg/mL | 0.78 µg/mL (≈ 0.765 µM) | 50 µg/mL (≈ 49 µM) | 12.5 µg/mL (≈ 12.3 µM) | 1 µg/mL (≈ 0.98 µM) | 32 µg/mL (≈ 31.4 µM) | 1 µg/mL (≈ 0.98 µM) | 0.5 µg/mL (≈ 0.49 µM) | 1 µg/mL (≈ 0.98 µM) | MIC [6]: > 50 µg/mL; ED50 ([31]; C203, po): 38.8 mg/kg; ED50 ([31]; C203, sc): 1.9 mg/kg; MIC [22]: 2 µg/mL (≈ 1.96 µM); MIC [23]: 1 µg/mL (≈ 0.98 µM); MIC [24]: > 128 µg/mL; MIC [25]: > 128 µg/mL; MIC [26]: 1 µg/mL (≈ 0.98 µM); MIC [27]: 16 µg/mL (≈ 15.7 µM); MIC [28]: > 128 µg/mL; MIC [29]: 0.25 µg/mL (≈ 0.245 µM); MIC [30]: 1 µg/mL (≈ 0.98 µM)
